# pIC50: −log10 of the molar value.
# Target: T1, renin (Homo sapiens, UniProt P00797)
# T1 sequence (P00797 67-406): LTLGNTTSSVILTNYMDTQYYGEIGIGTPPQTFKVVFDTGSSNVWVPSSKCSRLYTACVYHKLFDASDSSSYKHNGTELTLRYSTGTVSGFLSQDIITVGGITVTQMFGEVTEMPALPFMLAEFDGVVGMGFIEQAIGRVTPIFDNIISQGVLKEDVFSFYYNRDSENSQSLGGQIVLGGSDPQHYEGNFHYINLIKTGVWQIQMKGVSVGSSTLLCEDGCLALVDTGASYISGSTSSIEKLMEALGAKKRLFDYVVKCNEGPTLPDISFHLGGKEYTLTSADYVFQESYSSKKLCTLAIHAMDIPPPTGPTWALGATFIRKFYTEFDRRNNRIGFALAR
# Assay: in vitro renin inhibitory activity, radioimmunoassay for angiotensin I
# Type: biochemical
# Conditions: renin incubated two hours at 37° with angiotensinogen; for pIC50: read-out: IC50 (molar concentration of test compound causing a 50% inhibition of the renin activity)
# Experimental: The effectiveness of the aforementioned compound is determined by a test for in vitro renin inhibitory activity. This activity is determined by a standard radioimmunoassay for angiotensin I. In this assay the enzyme, renin, incubated for two hours at 37° in the presence of a substrate, angiotensinogen, generates the product, angiotensin I. Test compounds are added to the incubation mixture. Relative activity is reported as the IC50, which is the molar concentration of test compound causing a 50% inhibition of the renin activity. Relative activity is also reported as % inhibition at 10^-6 M,
Structure (SMILES),pIC50,inhibition at 1 µM (10^-6 M test compound) [%]
CC[C@H](C)CNC(=O)C[C@H](O)[C@H](CC(C)C)NC(=O)[C@H](CCCCNC(=O)CNC(=O)C(C)C)NC(=O)C(Cc1cccc2ccccc12)Cc1cccc2ccccc12 [Example 17],7.13,
CC[C@H](C)CNC(=O)C[C@H](O)[C@H](CC(C)C)NC(=O)[C@H](CCCCNC(=O)[C@@H]1CSCN1C(C)=O)NC(=O)C(Cc1cccc2ccccc12)Cc1cccc2ccccc12 [Example 13],5.96,
CC[C@H](C)CNC(=O)C[C@H](O)[C@H](CC(C)C)NC(=O)[C@H](CCC(=O)NCC(=S)NC)NC(=O)C(Cc1cccc2ccccc12)Cc1cccc2ccccc12 [Example 1],5.05,
CC[C@H](C)CNC(=O)C[C@H](O)[C@H](CC(C)C)NC(=O)[C@H](CCCCNC(=O)[C@@H]1CS(=O)(=O)CN1C(C)=O)NC(=O)C(Cc1cccc2ccccc12)Cc1cccc2ccccc12 [Example 14],6.33,
CC[C@H](C)CNC(=O)C[C@H](O)[C@H](CC(C)C)NC(=O)[C@H](CCCCNC(=O)CN)NC(=O)C(Cc1cccc2ccccc12)Cc1cccc2ccccc12 [Example 9],6.15,
CC[C@H](C)CNC(=O)C[C@H](O)[C@H](CC(C)C)NC(=O)[C@H](CCCCNC(=O)CNC(N)=N[N+](=O)[O-])NC(=O)C(Cc1cccc2ccccc12)Cc1cccc2ccccc12 [Example 19],8.10,
COC(=O)[C@H](CCS(C)(=O)=O)NC(=O)C[C@H](NC(=O)C(Cc1cccc2ccccc12)Cc1cccc2ccccc12)C(=O)N[C@@H](CC1CCCCC1)[C@@H](O)CC(=O)N[C@@H](CC(C)C)C(=O)NCc1ccccc1 [Example 3],5.46,
CNC(=S)CNC(=O)C[C@H](NC(=O)C(Cc1cccc2ccccc12)Cc1cccc2ccccc12)C(=O)N[C@@H](CC1CCCCC1)[C@@H](O)CC(=O)N[C@@H](CC(C)C)C(=O)NCc1ccccc1 [Example 5],6.62,
CC[C@H](C)CNC(=O)C[C@H](O)[C@H](CC(C)C)NC(=O)[C@H](CCCCNC(=O)CNC(=O)C(F)F)NC(=O)C(Cc1cccc2ccccc12)Cc1cccc2ccccc12 [Example 18],7.21,
CC[C@H](C)CNC(=O)C[C@H](O)[C@H](CC(C)C)NC(=O)[C@H](CCCCNC(=O)CCNC(C)=O)NC(=O)C(Cc1cccc2ccccc12)Cc1cccc2ccccc12 [Example 16],7.60,

# Second part, the compound after the results:
pIC50,inhibition at 1 µM (10^-6 M test compound) [%],Structure (SMILES)
7.52,,CC[C@H](C)CNC(=O)C[C@H](O)[C@H](CC(C)C)NC(=O)[C@H](CCCCNC(=O)CNC(=NC#N)NC)NC(=O)C(Cc1cccc2ccccc12)Cc1cccc2ccccc12 [Example 20]
7.57,,CC[C@H](C)CNC(=O)C[C@H](O)[C@H](CC1CCCCC1)NC(=O)[C@H](CCCCNC(=O)CNC(C)=O)NC(=O)C(Cc1cccc2ccccc12)Cc1cccc2ccccc12 [Example 12]
,47,CNC(=O)CCNC(=O)C[C@H](NC(=O)C(Cc1cccc2ccccc12)Cc1cccc2ccccc12)C(=O)N[C@@H](CC1CCCCC1)[C@@H](O)CC(=O)N[C@@H](CC(C)C)C(=O)NCc1ccccc1 [Example 6]
7.08,,CC[C@H](C)CNC(=O)C[C@H](O)[C@H](CC(C)C)NC(=O)[C@H](CCCCNC(=O)CNC(=O)OCc1ccccc1)NC(=O)C(Cc1cccc2ccccc12)Cc1cccc2ccccc12 [Example 8]
4.82,,CC[C@H](C)CNC(=O)C[C@H](O)[C@H](CC(C)C)NC(=O)[C@H](CCC(=O)NCC(=O)NC)NC(=O)C(Cc1cccc2ccccc12)Cc1cccc2ccccc12 [Example 2]
7.37,,CC[C@H](C)CNC(=O)C[C@H](O)[C@H](CC(C)C)NC(=O)[C@H](CCCCNC(=O)[C@@H]1CCC(=O)N1)NC(=O)C(Cc1cccc2ccccc12)Cc1cccc2ccccc12 [Example 15]
7.10,,CC[C@H](C)CNC(=O)C[C@H](O)[C@H](CC(C)C)NC(=O)[C@H](CCCCNC(=O)CNC(=S)NC)NC(=O)C(Cc1cccc2ccccc12)Cc1cccc2ccccc12 [Example 10]

# From US5034512A, “Branched backbone renin inhibitors” (Warner-Lambert Company, priority 1988, dated 1991)
